Reference: US20200297820A1, “STIMULATION OF HUMAN MEIBOMIAN GLAND FUNCTION” (The Schepens Eye Research Institute, Inc., priority 2013, published 2020)

Experiments:
Format in all cases: cell-based
[1] = test system: human meibomian gland epithelial cells; experiment: High-performance thin-layer chromatography of total cellular lipid extracts; settings: for accumulation of CE / accumulation of TG: 10 nM IGF-1 or 10 μg/mL AZM
Source text: Cell numbers were enumerated with a hemocytometer. Cellular lipid and lysosome accumulation were examined by staining cells with: Filipin III (a fluorometric probe for identifying unesterified cholesterol), LipidTOX green neutral lipid stain, and LysoTracker® Red DND-99 (a fluorescent technique designed for labeling acidic organelles such as lysosomes). Lysosomal lamellar bodies were identified by transmission electron microscopy. In brief, after culture and treatment on 24 mm polycarbonate membrane transwell inserts (0.4 μm pore size), cells were fixed in a solution of 2% formaldehyde+2.5% glutaraldehyde, in 0.08 M sodium cacodylate buffer, pH 7.4, post-fixed with 2% osmium tetroxide in 0.1 M sodium cacodylate buffer, and stained en bloc with 2% aqueousuranyl acetate. Samples were then dehydrated in graded ethyl alcohol solutions and embedded by using the tEPON-812 epoxy resin kit. Cross sections ([…]) were stained with 1% toluidine blue in 1% sodium tetraborate solution. Ultra-thin sections (60-90 nm) were imaged with a transmission electron microscope interfaced with a digital CCD camera. For biochemical assessments, cellular lipids were extracted with chloroform and methanol from samples with the same amount of protein. Lipids were then evaluated with high-performance thin-layer chromatography. With regard to the staining results, three Filipin, five LipidTox and four LysoTracker studies were conducted, and each experiment was performed in duplicate. Four random pictures were taken of each group, and four random areas were selected for the measurement of fluorescent intensities. The HPTLC experiments were performed in duplicate more than three times. Image data were quantified with ImageJ (http://rsbweb.nib.gov/ij/index.html). Electron microscopic analyses were performed in triplicate.
FIG. 8a illustrates the effect of AZM on the expression of cholesterol ester (CE), free cholesterol (FC), phosphatidylethanolamine (PE), phosphatidylcholine (PC), and phosphatidylinositol (PI) inhuman meibomian gland epithelial cells. Cells were treated with vehicle or 10 μg/ml AZM for 5 days before performing chromatographic analyses of total lipid extracts. FIG. 8b illustrates band intensity of the cells shown in FIG. 8a measured using ImageJ. Control band intensity was set to 1, and data (mean±SE) are reported as fold-change compared to control values. *p<0.05,**p<0.005, versus control. Band intensity analysis includes data from at least three independent experiments.
FIGS. 14a and 14b illustrate the effect of IGF-1, AZM, and IFG-1+AZM combination on the accumulation of CE, TG, FC, PE, and PC. […] FIG. 14b quantifies band intensity using ImageJ. The control band intensity was set to 1, and data (mean 6 SE) were reported as fold-change compared with control values. […] Other bands are unidentified lipids. Band intensity analysis included data from three independent experiments.

[2] = test system: human meibomian gland epithelial cells; experiment: Immunoblot of signaling pathways (Akt, FoxO1, ERK, JAK2/STAT5)
Method: The disclosure turns now to sodium dodecyl sulfate-polyacrylamide gel, electrophoresis, and immunoblots. Cells were directly lysed in Laemmli buffer supplemented with 1% protease inhibitor cocktail (Sigma-Aldrich) and 5% β-mercaptoethanol (Sigma-Aldrich). Lysates were heated at 95° C. for 10 minutes, separated by sodium dodecyl sulfate-polyacrylamide gel electrophoresis on 10% Tris-glycine precast gels, and transferred to polyvinylidene difluoride membranes. Rabbit or mouse antibodies used were specific for phosphorylated Akt (p-Akt), pan-Akt, p-FoxO1, FoxO1, p-JAK2, JAK2, and β-actin; for p-ERK, ERK-2, STAT5, and the precursor form of SREBP-1; and for p-STAT5. Membranes were blocked with 5% bovine serum albumin in Tris-buffered saline containing 0.01% polysorbate 20. All primary antibodies were diluted to 1:1000 in blocking buffer except for p-Akt (1:4000), p-ERK (1:2000), ERK-2 (1:4000), SREBP-1 (1:200), and β-actin (1:10 000). Horseradish peroxidase-conjugated secondary antibodies were goat anti-rabbit IgG and Fc-specific goat anti-mouse IgG diluted to 1:5000. Proteins were visualized with enhanced chemiluminescent substrate or with ultrasensitive chemiluminescent substrate. Densitometry was performed with image-processing software.
To determine whether IGF-1 promotes the phosphorylation of Akt in human meibomian gland epithelial cells, cells were cultured under proliferating or differentiating conditions and then exposed to IGF-1 for 15 minutes.
FIGS. 9a, 9b, and 9c illustrate the effects of insulin-like growth factor 1 (IGF-1) and growth hormone (GH) on signaling pathways in human meibomian gland epithelial cells. Cells were cultured in keratinocyte serum-free medium containing epidermal growth factor (EGF) and bovine pituitary extract (BPE) for 2 days and then keratinocyte serum-free medium alone overnight or were cultured in 10% fetal bovine serum (FBS) medium for 5 to 7 days and in 1% FBS medium overnight. Cells were then incubated with vehicle or a 10 μM concentration of LY294002 for 2 hours, followed by IGF-1 or GH treatment for 15 minutes. Cell lysates were evaluated on immunoblotting. […] These experiments were repeated at least 3 times with similar results.
To assess whether GH activates Akt, FoxO1, ERK-2, or its classic (i.e., JAK2 and STAT5) signaling pathways in human meibomian gland epithelial cells, cells were cultured in proliferating or differentiating media, and were exposed to a 10 nM concentration of GH for 15 minutes, and processed for immunoblot analyses. […]

[3] = test system: LNCaP cells; experiment: Proliferation of LNCaP control cells; settings: 1% FBS, 2 days
Method: Regarding cell proliferation assay, the human meibomian gland epithelial cells and LNCaP cells were cultured in 12-well plates in designated media and then exposed to IGF-1 or GH for defined periods. At experimental termination, cells were trypsinized and counted with a hemocytometer.
FIGS. 10a, 10b, and 10c illustrate the influence of IGF-1 on the proliferation of human meibomian gland epithelial cells. Cells were cultured (100,000 cells/well in 12-well plates, 3 wells per group) in basal, proliferating, and/or differentiating media and treated with IGF-I for 2 to 6 days. […] P values are for post hoc comparison compared with the control value. […] ANOVA indicates analysis of variance; EGF-BPE, epidermal growth factor-bovine pituitary extract; KSFM, keratinocyte serum-free medium. All comparisons are with control value. Whiskers mark SEM. aP<0.05 compared with the control value, post hoc test.

[4] = test system: immortalized human meibomian gland epithelial cells; experiment: LipidTOX green neutral lipid staining (lipid accumulation); settings: 10 nM each hormone, up to 13 days

Compound | accumulation of CE ([1]; 7 days) | accumulation of TG ([1]; 7 days) | phosphorylation of extracellular-signal-regulated kinases (ERKs) [2] | phosphorylation of ERK ([2]; 10 nM, 15 minutes, 2 studies enhanced, 3 no influence) | phosphorylation of FoxO1 ([2]; 10 nM, 15 minutes, differentiating cells) | culture condition in which Akt and FoxO1 phosphorylation occurred ([2]; 10 nM, 15 minutes, proliferating or differentiating conditions) | concentration at which p-Akt effect became maximal ([2]; IGF-1 for 15 minutes) [nM] | concentration at which p-Akt effect could be detected ([2]; IGF-1 for 15 minutes) [nM] | expression of p-Akt ([2]; IGF-1 for 15 minutes, differentiating cells) | phosphorylation of Akt ([2]; within minutes) | proliferation [3] | accumulation of lipid [4] | accumulation of PE ([1]; 10 μg/mL AZM, 7 days) | accumulation of esterified cholesterol (CE) ([1]; 10 μg/ml, 5 days) | accumulation of free cholesterol (FC) ([1]; 10 μg/ml, 5 days) | accumulation of phosphatidylcholine (PC) ([1]; 10 μg/ml, 5 days) | accumulation of phosphatidylethanolamine (PE) ([1]; 10 μg/ml, 5 days) | accumulation of phosphatidylinositol (PI) ([1]; 10 μg/ml, 5 days) | activation of Akt, FoxO1, ERK-2, JAK2 and STAT5 ([2]; 10 nM, 15 minutes, proliferating or differentiating media) | activation of Akt, FoxO1, ERK-2, JAK2 and STAT5 ([2]; doses of 0.05 to 50 nM)
IGF-1: recombinant human insulin-like growth factor 1 | significant effect | significant effect | increase the phosphorylation | inconsistent effect | increased phosphorylation of FoxO1 | differentiating but not proliferating cells | 10 | 1 | dose-dependent expression of p-Akt | increases the phosphorylation of Akt | increased | significant accumulation of lipid | – | – | – | – | – | – | – | –
CC[C@H]1OC(=O)[C@H](C)[C@@H](O[C@H]2C[C@@](C)(OC)[C@@H](O)[C@H](C)O2)[C@H](C)[C@@H](O[C@@H]2O[C@H](C)C[C@H](N(C)C)[C@H]2O)[C@](C)(O)C[C@@H](C)CN(C)[C@H](C)[C@@H](O)[C@]1(C)O [Azithromycin] | significant effect | significant effect | – | – | – | – | – | – | – | – | – | – | significant effect | significantly promotes an accumulation | significantly promotes an accumulation | significantly promotes an accumulation | significantly promotes an accumulation | significantly promotes an accumulation | – | –
GH: human growth hormone | – | – | increase the phosphorylation | – | – | – | – | – | – | – | increased | significant accumulation of lipid | – | – | – | – | – | – | did not show that GH elicited effects | negative results
